Here are results for 1 compound from patent US11117919B2, “Icariside compound, preparation method thereof, and application thereof” (FOSHAN GOLDEN HEALTH TECHNOLOGY CO., LTD., priority 2015, dated 2021).

The test system of data set [1] is human peripheral blood mixed lymphocytes. Description: IFN-γ production in mixed lymphocyte culture (MLC) reaction. The format is cell-based. Particulars: 120 h. On the procedure: Effect of icariside I on promotion of γ-interferon (interferon-gamma, IFN-γ) production by human peripheral blood mixed lymphocytes during culture (an experimental model mimicking enhancing immunity in human body).
(1) Preparation of human peripheral blood mononuclear cells (PBMCs): following the method in Example 5 (2), peripheral blood PBMCs from two normal human were prepared.
Cell concentrations of freshly isolated peripheral blood mononuclear cells (PBMCs) were adjusted to […] with RPMI1640 complete medium. Then, lymphocytes from two healthy human with equal volumes were mixed to maintain a total cell concentration of […]. Different concentrations (in a gradient) of or no icariside I were added thereto (with final concentration of 100 ng/ml, 1000 ng/ml) followed by fully mixing. Then the cells after stimulation were seeded and cultured in a 96-well round-bottom culture plate. The cell concentration per well was maintained at 2×10^5/ml (200 μl/well) and was incubated at 37° C. with 5% CO2 for 120 h in an incubator. The levels of cytokine IFN-γ were detected.
According to the method stated in Example 5 (4), the γ-interferon generated from human peripheral blood mixed lymphocyte culture (MLC) was detected.
Equal cell concentrations of lymphocytes from healthy human were mixed cultured for five days (120 h). The pharmaceutical icariside I was added (in a gradient of different pharmaceutical concentrations) or not added. […] Among them, the human lymphocyte A control is a group of samples containing only one kind of human lymphocyte, while human lymphocyte B control is a group of samples containing two kinds of human lymphocytes, that is, a control group in which two kinds of human lymphocytes were mixed for culture without adding icariside I. The concentrations of icariside I added were 0.1 and 1 μg/ml respectively. *P<0.05; **P<0.01. […]
Cell concentrations of freshly isolated peripheral blood mononuclear cells (PBMCs) were adjusted to 5×10^5/ml with RPMI1640 complete medium. […] The level of cytokine IFN-γ produced was then detected.

Data set [2] relates to PBMCs from healthy human. Description: IFN-γ production by PBMCs of healthy human cultured with icariside I (Example 9). In kind it is cell-based. As to conditions: 0.1, 0.5, 1 μg/ml, 48 h. The procedure: (1) Isolation of human peripheral blood mononuclear cells (PBMCs): according to the method stated in Example 5 (2), normal human peripheral blood PBMCs were prepared.
(3) PBMCs and PFMCs cell culture (MLC) with stimulation by a pharmaceutical: Icariside I was used at concentrations of 0.1 μg/ml, 0.5 μg/ml, and 1 μg/ml respectively to stimulate PBMCs and PFMCs under the incubation condition at 37° C. with 5% CO2 for 48 hours.
(4) ELISA assay for analysis of IFN-γ: according to the method stated in Example 5 (4), the levels of γ-interferon produced by PBMCs and PFMCs after culture with pharmaceutical stimulations were measured.
PBMCs from healthy human and PFMCs from TB infected patients were respectively cultured for 2 days (48 h), then added or not added with the pharmaceutical icariside I (at a gradient of different concentrations). […] Among the tests, the concentrations of icariside I added were 0.1, 0.5 and 1 μg/ml. *P<0.05; **-***P<0.01.

Data set [3] has as its system S180 ascites tumor of mice. Description: Inhibition of S180 tumor growth in mice. Particulars: for change of body weight (g) / tumor inhibition rate (%) with physiological saline group as control / tumor inhibition rate (%) with solvent group as control / weight of tumor (x ± SD, g): 10 days. On the procedure: NIH mice used for the tests were about 18-22 grams and divided into 10 mice per group. The liquid (0.2 ml) of S180 ascites tumor of mice was inoculated subcutaneously into the armpit region of mice. The next day after the inoculation, each group of mice were injected intraperitoneally: (1) physiological saline group; (2) solvent control group (DMSO); (3) positive control group [cyclophosphamide 60 mg/(kg·d)]; (4) low-dose group 1: icariside I 2 mg/(kg·d); (5) low-dose group 2: icariside I 5 mg/(kg·d); (6) middle-dose group: icariside I 10 mg/(kg·d); (7) high-dose group: icariside I 20 mg/(kg·d). After administration for 10 continuous days, the administration was stopped and on the next day, the mice were weighed and sacrificed with tumor mass stripped and weighed. The physiological saline group and solvent group were used as a control for calculation of tumor inhibition rate.

The format of data set [4] is in vivo. Particulars: observation for 14 days. The procedure:
Mice weighed 18-22 grams were randomly divided into six groups with 10 mice each group. Each individual group of mice were treated (orally) with: physiological saline, DMSO 2.5 ml/kg, and icariside I: 2000 mg/kg, 1000 mg/kg, 500 mg/kg, 100 mg/kg respectively. […] Therefore, the acute toxicity of icariside I is very low which is safe for use in preparation of pharmaceuticals, health products, food, and cosmetic and skin care products for prevention and treatment of immunity-related diseases.

In the case of `COc1ccc(-c2oc3c(CC=C(C)C)c(O[C@@H]4O[C@H](CO)[C@@H](O)[C@H](O)[C@H]4O)cc(O)c3c(=O)c2O)cc1` [icariside I], in data set [1] (100 and 1000 ng/ml, dose dependent), the “promotion of generation of IFN-γ in the mixed lymphocyte culture” value is given as “up to 300%”. In addition, the “ability to promote human γ-interferon production in mixed lymphocyte culture” value in data set [1] (final concentration 1000 ng/ml) is “best ability”. Further, the “effect on PBMCs in producing IFN-γ” value in data set [2] is given as “no significant promoting effect”. In data set [3] (S180, intraperitoneal, 10 continuous days, 2-20 mg/(kg·d)), the “tumorigenesis and tumor progression in mice” value is “significantly inhibit”. In data set [3] (high dose 20 mg/Kg i.p.), the “change of body weight (g)” value is on record as “+9.0 g”; the “tumor inhibition rate (%) with physiological saline group as control” value is listed as 67.3%; the “tumor inhibition rate (%) with solvent group as control” value was 74.6%; the “weight of tumor (x ± SD, g)” value amounted to 0.34 ± 0.12 g. For the same compound, in data set [3] (low dose 2 mg/Kg i.p.), the “change of body weight (g)” value is listed as “+11.6 g”; the “tumor inhibition rate (%) with physiological saline group as control” value is on record as 5.8%; the “tumor inhibition rate (%) with solvent group as control” value is on record as 26.9%; the “weight of tumor (x ± SD, g)” value was determined as 0.98 ± 0.47 g. In data set [3] (low dose 5 mg/Kg i.p.), the “change of body weight (g)” value was “+12.5 g”; the “tumor inhibition rate (%) with physiological saline group as control” value is listed as 26.0%; the “tumor inhibition rate (%) with solvent group as control” value is 42.5%; the “weight of tumor (x ± SD, g)” value came out at 0.77 ± 0.47 g. In data set [3] (middle dose 10 mg/Kg i.p.), the “change of body weight (g)” value was “+10.6 g”; the “tumor inhibition rate (%) with physiological saline group as control” value came out at 38.5%; the “tumor inhibition rate (%) with solvent group as control” value is reported as 52.2%; the “weight of tumor (x ± SD, g)” value was determined as 0.64 ± 0.25 g. In addition, the “acute toxicity LD50” value in data set [4] (mice, oral) was “greater than 2000 mg/kg”. Besides, the “deaths of test mice” value in data set [4] (oral 100-2000 mg/kg) is reported as “none of the test mice died”.
